Strand notation (5' to 3'): a small letter for the sugar, then the base; units joined by * are phosphorothioate-linked, units joined directly phosphodiester-linked; [ ] holds rarer units or linkages, { } end groups; capitals alone tell only the bases. k = constrained ethyl (cEt); [5mC] = 5-methylcytosine; d = 2'-deoxy (DNA)
Tested on: Yap1 mRNA
Assay: Antisense inhibition of human Yap1 in A-431 cells by cEt gapmers, single dose (Example 2, RTS4814)
Format: cell-based
Details: A-431 cells, 5,000 cells per well, free uptake, 2,000 nM modified oligonucleotide, approx. 48 hours, RTS4814, normalized to RIBOGREEN; Table 4; asterisk (*) = targets amplicon region of primer probe set
How it was run: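 Free uptake, 2,000 nM, ~48 h, A-431 at 5,000 cells/well. Readout: RT-qPCR (RTS4814), RIBOGREEN-normalized, % UTC. 16-mer 3-10-3 cEt gapmers, full PS backbone, all C as 5-methylcytosine.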

Point of comparison: “716382 (kA*kG*k[5mC]*dA*dT*dG*dG*d[5mC]*d[5mC]*dT*dT*d[5mC]*d[5mC]*kT*kG*kG; antisense) [Compound 716382]”, “YAP1 (% UTC)” value 73 % UTC. Against it:
- 716355 (kG*kA*k[5mC]*dG*dG*d[5mC]*dT*dG*d[5mC]*dG*dG*dG*d[5mC]*k[5mC]*kG*kG; antisense) [Compound 716355] — higher, 96 % UTC
- 716574 (kT*kA*k[5mC]*dA*d[5mC]*dT*dG*dT*dA*dT*dA*dT*dG*kT*kT*k[5mC]; antisense) [Compound 716574] — higher, 91 % UTC
- 716508 (antisense k[5mC]*kT*kA*dG*dG*dT*dA*dG*dA*dA*dT*dT*dT*k[5mC]*kA*kT) [Compound 716508] — lower, 67 % UTC

Same assay, conditions: Table 5; A-431 cells, 5,000 cells per well, free uptake, 2,000 nM modified oligonucleotide, approx. 48 hours; RTS4814; normalized to RIBOGREEN; Yap1 mRNA relative to untreated control cells

In the case of “716542 (antisense k[5mC]*kT*kT*d[5mC]*d[5mC]*d[5mC]*dT*dG*dT*dG*dT*dT*d[5mC]*kA*kT*kT) [Compound 716542]”, the “YAP1 (% UTC)” value is reported as 45 % UTC.

Same assay, conditions: Table 6; A-431 cells, 5,000 cells per well, free uptake, 2,000 nM modified oligonucleotide, approx. 48 hours; RTS4814; normalized to RIBOGREEN; Yap1 mRNA relative to untreated control cells

Point of comparison: “716537 (antisense kA*kT*kG*dT*dG*d[5mC]*dT*d[5mC]*d[5mC]*dA*dT*d[5mC]*dA*kA*k[5mC]*k[5mC]) [Compound 716537]”, “YAP1 (% UTC)” value 36 % UTC. Against it:
- 716543 (antisense kT*kA*kT*dT*dT*dG*dT*dA*dG*d[5mC]*dA*dA*dA*kG*kT*k[5mC]) [Compound 716543] — lower, 35 % UTC
- 716375 (kG*kA*kG*dA*d[5mC]*dT*dA*d[5mC]*dT*d[5mC]*d[5mC]*dA*dG*kT*kG*kG; antisense) [Compound 716375] — higher, 63 % UTC

Same assay, conditions: Table 18; A-431 cells, 5,000 cells per well, free uptake, 2,000 nM modified oligonucleotide, approx. 48 hours; RTS4814; normalized to RIBOGREEN; Yap1 mRNA as percent of untreated control

Point of comparison: “1074788 (kT*k[5mC]*kA*dA*d[5mC]*d[5mC]*dA*dT*dA*dA*dG*dT*dA*kG*kA*kT; antisense) [Compound 1074788]”, “YAP1 (% UTC)” value 25 % UTC. Against it:
- 1075844 (kT*kA*kT*dT*dA*dA*dA*dT*dA*dA*dG*dA*dG*k[5mC]*kT*k[5mC]; antisense) [Compound 1075844] — higher, 84 % UTC
- 1074948 (antisense kG*kA*kG*dT*dT*d[5mC]*d[5mC]*dA*dA*dA*dA*d[5mC]*d[5mC]*k[5mC]*kT*kT) [Compound 1074948] — higher, 61 % UTC
- 1075140 (antisense k[5mC]*kT*kT*dT*dA*dG*dG*dT*dT*dA*dA*dG*d[5mC]*kA*kA*kT) [Compound 1075140] — higher, 86 % UTC
- 1075236 (antisense kT*kA*kT*dA*dA*dT*dA*d[5mC]*d[5mC]*dA*d[5mC]*dA*dA*kA*kG*kT) [Compound 1075236] — higher, 81 % UTC

Same assay, conditions: Table 19; A-431 cells, 5,000 cells per well, free uptake, 2,000 nM modified oligonucleotide, approx. 48 hours; RTS4814; normalized to RIBOGREEN; Yap1 mRNA as percent of untreated control

Point of comparison: “1075461 (antisense k[5mC]*kT*kA*dA*dA*dT*dA*dA*d[5mC]*d[5mC]*dA*dA*dG*kG*kA*kT) [Compound 1075461]”, “YAP1 (% UTC)” value 64 % UTC. Against it:
- 1075813 (kA*k[5mC]*kT*dA*dA*dT*dA*dT*dG*d[5mC]*dA*dA*d[5mC]*kT*k[5mC]*kT; antisense) [Compound 1075813] — lower, 4 % UTC

Same assay, conditions: Table 20; Yap1 mRNA, percent of untreated control; 3-10-3 cEt gapmers targeting SEQ ID NO.: 1 and 2

Point of comparison: “1076550 (antisense kT*kA*k[5mC]*d[5mC]*dA*dA*d[5mC]*d[5mC]*dT*dG*dT*dA*dT*k[5mC]*k[5mC]*kA) [Compound 1076550]”, “YAP1 (% UTC)” value 61 % UTC. Against it:
- 1076422 (kG*kA*kA*dT*dT*dA*dT*dG*dA*d[5mC]*d[5mC]*dT*d[5mC]*k[5mC]*kA*kT; antisense) [Compound 1076422] — lower, 13 % UTC

Same assay, conditions: Table 21; Yap1 mRNA, percent of untreated control; 3-10-3 cEt gapmers targeting SEQ ID NO.: 1 and 2

Point of comparison: “1074695 (antisense k[5mC]*k[5mC]*k[5mC]*d[5mC]*d[5mC]*dT*dA*dA*dA*dT*d[5mC]*dT*dT*k[5mC]*kA*k[5mC]) [Compound 1074695]”, “YAP1 (% UTC)” value 49 % UTC. Against it:
- 1075687 (kT*kA*kA*dA*d[5mC]*dG*dA*dG*dT*dA*dA*dT*dG*kA*k[5mC]*kT; antisense) [Compound 1075687] — lower, 23 % UTC
- 1076359 (kA*kT*kT*dT*dA*dT*d[5mC]*d[5mC]*dT*dA*dG*dT*dT*kA*k[5mC]*k[5mC]; antisense) [Compound 1076359] — lower, 29 % UTC
- 1074791 (k[5mC]*kT*k[5mC]*d[5mC]*dA*dT*d[5mC]*dA*dA*d[5mC]*d[5mC]*dA*dT*kA*kA*kG; antisense) [Compound 1074791] — lower, 20 % UTC
- 1074823 (kG*kA*kG*d[5mC]*dA*d[5mC]*dT*d[5mC]*dA*dT*dT*dT*d[5mC]*kT*k[5mC]*kA; antisense) [Compound 1074823] — higher, 77 % UTC
- 1075431 (antisense kT*kA*kA*d[5mC]*dT*dA*dA*dA*d[5mC]*dT*dG*dA*dT*kT*k[5mC]*k[5mC]) [Compound 1075431] — higher, 74 % UTC

Same assay, conditions: Table 22; Yap1 mRNA as percent of untreated control; 3-10-3 cEt gapmers; single dose

“1075752 (k[5mC]*kA*kT*dA*dA*dT*dT*dA*dT*dA*d[5mC]*dT*dG*kA*kT*k[5mC]; antisense) [Compound 1075752]” was tested, and the “YAP1 (% UTC)” value was 19 % UTC.

Same assay, conditions: Table 23; Yap1 mRNA as percent of untreated control; 3-10-3 cEt gapmers; single dose

Point of comparison: “1075049 (antisense kG*kA*kA*dA*dT*dA*dT*dT*dG*dG*dT*dA*dA*kG*kT*k[5mC]) [Compound 1075049]”, “YAP1 (% UTC)” value 10 % UTC. Against it:
- 1074185 (antisense kG*kG*k[5mC]*d[5mC]*dG*dG*dT*dT*dG*dA*dG*dG*d[5mC]*kG*kG*k[5mC]) [Compound 1074185] — higher, 91 % UTC

Same assay, conditions: Table 24; Yap1 mRNA as percent of untreated control; 3-10-3 cEt gapmers targeting SEQ ID NO.: 1, and 2

Point of comparison: “1076458 (antisense k[5mC]*kT*kT*dA*dA*dT*dT*dA*dG*d[5mC]*d[5mC]*dT*d[5mC]*kA*kG*kT) [Compound 1076458]”, “YAP1 (% UTC)” value 6 % UTC. Against it:
- 1075818 (k[5mC]*kA*kT*dA*dA*d[5mC]*dT*dT*dA*dG*dA*dA*d[5mC]*k[5mC]*kA*kT; antisense) [Compound 1075818] — higher, 35 % UTC
- 1074954 (antisense k[5mC]*k[5mC]*kG*dG*dG*dT*dT*dT*dT*dT*dG*dT*d[5mC]*kA*kT*k[5mC]) [Compound 1074954] — higher, 91 % UTC
- 1075306 (kT*kA*kA*dA*d[5mC]*dG*dA*dA*dA*d[5mC]*dA*d[5mC]*dG*kG*kG*kT; antisense) [Compound 1075306] — higher, 30 % UTC

Same assay, conditions: Table 25; Yap1 mRNA as percent of untreated control; 3-10-3 cEt gapmers targeting SEQ ID NO.: 1, and 2

Point of comparison: “1075723 (kT*kT*kA*dT*d[5mC]*d[5mC]*dT*dA*dT*d[5mC]*d[5mC]*d[5mC]*dT*kG*kG*kT; antisense) [Compound 1075723]”, “YAP1 (% UTC)” value 32 % UTC. Against it:
- 1074251 (antisense kT*k[5mC]*kT*dG*dA*dT*d[5mC]*dG*dA*dT*dG*dT*dG*kA*kT*kT) [Compound 1074251] — lower, 7 % UTC
- 1076043 (k[5mC]*kA*kA*dA*dA*dA*dG*dG*d[5mC]*dT*dA*dT*dT*kG*kA*kG; antisense) [Compound 1076043] — higher, 36 % UTC
- 1075083 (antisense k[5mC]*kA*kA*d[5mC]*dA*dA*d[5mC]*dA*d[5mC]*dT*d[5mC]*d[5mC]*dT*k[5mC]*kT*kT) [Compound 1075083] — higher, 54 % UTC
- 1074571 (antisense kT*kA*kT*dG*dA*dA*d[5mC]*d[5mC]*dT*dA*d[5mC]*dT*d[5mC]*kA*k[5mC]*kT) [Compound 1074571] — higher, 37 % UTC

Same assay, conditions: Table 32; Yap1 mRNA, percent of untreated control; 3-10-3 cEt gapmers targeting SEQ ID NO.: 1, and 2

Point of comparison: “1075090 (kG*k[5mC]*kT*dT*dA*dT*dA*dA*dT*d[5mC]*dT*dT*dT*k[5mC]*kA*kG; antisense) [compound 1075090]”, “YAP1 (% UTC)” value 9 % UTC. Against it:
- 1075570 (kG*kA*kT*dA*d[5mC]*dT*dA*dA*dG*d[5mC]*dA*d[5mC]*dA*kG*kA*kG; antisense) [compound 1075570] — higher, 16 % UTC
- 1074258 (antisense kA*kT*kA*dT*dT*d[5mC]*dT*dG*d[5mC]*dT*dG*d[5mC]*dA*k[5mC]*kT*kG) [compound 1074258] — higher, 36 % UTC
- 1075314 (antisense kA*kA*kT*dA*dA*dA*dG*dT*d[5mC]*dT*dA*dA*dT*k[5mC]*k[5mC]*kA) [compound 1075314] — higher, 54 % UTC
- 1076242 (kA*kT*kG*d[5mC]*dA*dA*dT*dA*dA*dG*dG*dA*dA*k[5mC]*kA*kG; antisense) [compound 1076242] — higher, 33 % UTC

Same assay, conditions: Table 33; Yap1 mRNA, percent of untreated control; 3-10-3 cEt gapmers targeting SEQ ID NO.: 1, and 2

Point of comparison: “1074163 (k[5mC]*kA*kG*dG*d[5mC]*dG*dA*dG*d[5mC]*dG*dA*dG*dG*kG*k[5mC]*kT; antisense) [compound 1074163]”, “YAP1 (% UTC)” value 118 % UTC. Against it:
- 1075251 (kT*kA*kA*dT*dT*dA*d[5mC]*dG*dA*dT*dT*dA*dG*kA*kT*k[5mC]; antisense) [compound 1075251] — lower, 79 % UTC
- 1074291 (antisense k[5mC]*kA*k[5mC]*dT*d[5mC]*dT*dG*dA*d[5mC]*dT*dG*dA*dT*kT*k[5mC]*kT) [compound 1074291] — lower, 11 % UTC

Same assay, conditions: Yap1 mRNA as percent of untreated control; A-431 cells; 3-10-3 cEt gapmers targeting SEQ ID NO.: 1, and 2; Table 30

In the case of “1076496 (kG*kT*kT*dA*dA*dA*dG*dA*d[5mC]*d[5mC]*dA*dA*d[5mC]*kA*k[5mC]*kA; antisense) [compound 1076496]”, the “YAP1 (% UTC)” value is reported as 81 % UTC.

Same assay, conditions: Yap1 mRNA as percent of untreated control; A-431 cells; 3-10-3 cEt gapmers targeting SEQ ID NO.: 1, and 2; Table 31

In the case of “1075473 (kA*kG*kT*dT*dA*dT*dA*dA*d[5mC]*dT*dG*dT*dA*k[5mC]*kT*kA; antisense) [compound 1075473]”, the “YAP1 (% UTC)” value is reported as 89 % UTC.
